Experiments:
Mouse mdr1a Pgp = molecular target: T1, Mouse mdr1a Pgp (Mus musculus, UniProt P21447); test: Verapamil-stimulated ATPase activity of purified Pgp in DDM detergent activated with lipids (detergent-lipid micelles); assay type: biochemical; conditions: ATPase in the absence of verapamil; Pgp in DDM activated with 1% of the named lipid (Table 2)
T1 construct: made in house; host or cells: Pichia pastoris
Method: All purification buffers contained 50 mM Tris pH 8, 10% glycerol, and 500 mM NaCl (Buffer A). Detergent concentrations were reduced to 0.05% DDM during chromatography. Pgp was eluted from the Strep-Tactin superflow resin (Qiagen, Valencia, CA) in the presence of 1 mM DTT, 1 mM TCEP by competition with 4 mM desthiobiotin.

Pgp = molecular target: T2, Pgp (Mus musculus, UniProt P21447); test: Thermostability of purified Pgp in detergent solution (CPM dye fluorescence on heating); conditions: Pgp purified in 0.05% DDM containing 0.01% CHS (DDM/CHS); Pgp in DDM alone ~40 °C
T2 construct: made in house; host or cells: Pichia pastoris
Method: Figure S1: CHS increases the thermostability of purified Pgp in DDM detergent solution.
Pgp was purified from microsomal membranes as detailed in Methods in either 0.05% DDM or 0.05% DDM containing 0.01% CHS (DDM/CHS). Samples were incubated with 2 µM of the cysteine-reactive dye 7-Diethylamino-3-(4'-maleimidylphenyl)-4-methylcoumarin (CPM), and the increase in fluorescence upon heating the samples with a temperature ramp of 1 °C/min was monitored with excitation/ emission wavelengths of 384/470 nm. Increase in fluorescence is due to protein unfolding and exposure of reactive cysteines in Pgp. The melting temperature Tm was ~40 °C for Pgp in DDM solution, similar to that reported for Pgp by other methods (Yang et al., […]
2017). […] Representatives of three independent experiments are shown.
(1 picture or pasted object on this page, not shown here)

T1 sequence (P21447 whole entry): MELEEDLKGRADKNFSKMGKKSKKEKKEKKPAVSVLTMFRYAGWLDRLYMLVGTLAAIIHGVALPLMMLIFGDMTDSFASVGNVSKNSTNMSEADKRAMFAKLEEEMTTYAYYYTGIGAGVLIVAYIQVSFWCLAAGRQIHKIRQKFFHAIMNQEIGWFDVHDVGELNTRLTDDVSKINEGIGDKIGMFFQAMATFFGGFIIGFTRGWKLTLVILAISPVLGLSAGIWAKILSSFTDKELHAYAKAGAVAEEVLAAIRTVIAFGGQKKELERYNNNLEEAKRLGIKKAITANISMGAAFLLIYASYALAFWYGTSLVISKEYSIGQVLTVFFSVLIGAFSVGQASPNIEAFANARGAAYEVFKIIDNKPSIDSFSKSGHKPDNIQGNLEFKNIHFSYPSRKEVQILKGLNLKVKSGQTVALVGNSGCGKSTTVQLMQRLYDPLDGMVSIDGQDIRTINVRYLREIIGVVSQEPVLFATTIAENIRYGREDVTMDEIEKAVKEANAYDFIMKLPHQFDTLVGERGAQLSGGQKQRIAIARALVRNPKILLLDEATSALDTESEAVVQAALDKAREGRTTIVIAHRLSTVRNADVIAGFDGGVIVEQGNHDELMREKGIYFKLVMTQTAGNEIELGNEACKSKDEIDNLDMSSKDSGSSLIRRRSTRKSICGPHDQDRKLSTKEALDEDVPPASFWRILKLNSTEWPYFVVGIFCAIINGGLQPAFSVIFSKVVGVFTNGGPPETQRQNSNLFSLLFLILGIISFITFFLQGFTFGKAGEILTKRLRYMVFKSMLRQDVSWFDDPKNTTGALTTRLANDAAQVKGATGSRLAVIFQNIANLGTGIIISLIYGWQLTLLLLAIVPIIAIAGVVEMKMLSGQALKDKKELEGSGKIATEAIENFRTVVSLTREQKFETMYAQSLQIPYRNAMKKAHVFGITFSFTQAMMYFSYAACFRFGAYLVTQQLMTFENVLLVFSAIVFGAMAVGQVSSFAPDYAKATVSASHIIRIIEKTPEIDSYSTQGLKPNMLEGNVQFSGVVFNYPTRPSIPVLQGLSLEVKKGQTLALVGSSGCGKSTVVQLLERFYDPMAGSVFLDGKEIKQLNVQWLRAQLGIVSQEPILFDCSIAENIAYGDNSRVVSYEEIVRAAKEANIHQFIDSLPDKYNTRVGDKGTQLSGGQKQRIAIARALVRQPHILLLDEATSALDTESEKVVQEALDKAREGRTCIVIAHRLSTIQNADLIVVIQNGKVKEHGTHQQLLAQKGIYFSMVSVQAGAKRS
T2 sequence (P21447 whole entry): as above

Structure (SMILES): CCCCCCCC/C=C\CCCCCCCC(=O)O[C@H](COC(=O)CCCCCCCCCCCCCCC)COP(=O)([O-])OCC[N+](C)(C)C [POPC only, 1-palmitoyl-2-oleoyl-sn-glycero-3-phosphocholine]
- Basal activity (Mouse mdr1a Pgp): 0.05 µmol/min/mg

Structure (SMILES): CC(C)CCC[C@@H](C)[C@H]1CC[C@H]2[C@@H]3CC=C4C[C@@H](OC(=O)CCC(=O)O)CC[C@]4(C)[C@H]3CC[C@]12C [CHS, cholesteryl hemisuccinate]
- melting temperature Tm of Pgp (Pgp): 52 ºC

From paper PMC9995911, “Lipid environment determines the drug-stimulated ATPase activity of P-glycoprotein” (Frontiers in Molecular Biosciences, 2023)
